Assay results published in ChEMBL document CHEMBL4732256, “Synthesis and biological activities of novel mitochondria-targeted artemisinin ester derivatives” (Bioorg Med Chem Lett, 2021).
Calls of active or inactive are those of the source. No cut-off for these calls is given here.

How the values were obtained:
SMMC-7721 = test: Cytotoxicity against human SMMC-7721 cells assessed as reduction in cell viability by MTT assay; assay type: functional, cell-based
HepG2 = test: Cytotoxicity against human HepG2 cells assessed as reduction in cell viability by MTT assay; assay type: functional, cell-based
OVCAR-3 [1] = test: Cytotoxicity against human OVCAR3 cells assessed as reduction in cell viability by MTT assay; assay type: functional, cell-based
A549 [2] = test: Cytotoxicity against human A549 cells assessed as reduction in cell viability by MTT assay; assay type: functional, cell-based
J82 = test: Cytotoxicity in human J82 cells assessed as reduction in cell viability by MTT assay; assay type: functional, cell-based
HUVEC = test: Cytotoxicity against HUVEC assessed as reduction in cell viability by MTT assay; assay type: cell-based; settings: Homo sapiens
[3] = Selectivity index ratio of IC50 for HUVEC to IC50 for human OVCAR3 cells
OVCAR-3 [4] = test: Induction of apoptosis in human OVCAR-3 cells assessed as early apoptotic cell at 10 uM after 48 hrs by Annexin V-FITC/PI staining based flow cytometry (reference value: 1.58%); assay type: functional
OVCAR-3 [5] = test: Induction of apoptosis in human OVCAR-3 cells assessed as late apoptotic cell at 10 uM after 48 hrs by Annexin V-FITC/PI staining based flow cytometry (reference value: 0.118%); assay type: functional
OVCAR-3 [6] = test: Induction of apoptosis in human OVCAR-3 cells assessed as necrotic cell at 10 uM after 48 hrs by Annexin V-FITC/PI staining based flow cytometry (reference value: 0.00%); assay type: functional
OVCAR-3 [7] = test: Induction of apoptosis in human OVCAR-3 cells assessed as viable cell at 10 uM after 48 hrs by Annexin V-FITC/PI staining based flow cytometry (reference value: 98.3%); assay type: functional
OVCAR-3 [8] = test: Induction of apoptosis in human OVCAR-3 assessed as nuclear blebbing measured after 48 hrs by Hoechst 33258 staining based fluorescence microscopic analysis; assay type: functional, cell-based; settings: dose 3-10 µM
OVCAR-3 [9] = test: Induction of apoptosis in human OVCAR-3 assessed as nuclear rounding measured after 48 hrs by Hoechst 33258 staining based fluorescence microscopic analysis; assay type: functional, cell-based; settings: dose 3-10 µM
OVCAR-3 [10] = test: Induction of mitochondrial membrane potential loss in human OVCAR-3 cells assessed as mitochondrial depolarization by measuring green fluorescence at 3 uM measured after 48 hrs by JCI staining based fluorescence microscopy (reference value: 3.3 %); assay type: functional
OVCAR-3 [11] = test: Induction of mitochondrial membrane potential loss in human OVCAR-3 cells assessed as mitochondrial depolarization by measuring green fluorescence at 10 uM measured after 48 hrs by JCI staining based fluorescence microscopy (reference value: 3.3 %); assay type: functional
OVCAR-3 [12] = test: Induction of mitochondrial membrane potential loss in human OVCAR-3 cells assessed as mitochondrial depolarization by measuring green fluorescence at 30 uM measured after 48 hrs by JCI staining based fluorescence microscopy (reference value: 3.3 %); assay type: functional
OVCAR-3 [13] = test: Induction of heme-mediated cell death in human OVCAR-3 cells assessed as reduction in cell viability at 3 to 30 uM pretreated with delta-aminolevulinic acid followed by compound addition by Hoechst 33258 staining based assay; settings: dose 3-30 µM
OVCAR-3 [14] = test: Induction of heme-mediated cell death in human OVCAR-3 cells assessed as reduction in cell viability at 3 to 30 uM pretreated with succinyl-acetone followed by compound addition by Hoechst 33258 staining based assay; settings: dose 3-30 µM
OVCAR-3 [15] = test: Induction of apoptosis in human OVCAR-3 assessed as nuclear shrinkage measured after 48 hrs by Hoechst 33258 staining based fluorescence microscopic analysis; assay type: functional, cell-based; settings: dose 3-10 µM
A549 [16] = test: Potency index, ratio of cisplatin IC50 to test compound IC50 for human A549 cells; assay type: functional
OVCAR-3 [17] = test: Potency index, ratio of cisplatin IC50 to test compound IC50 for human OVCAR-3 cells; assay type: functional
OVCAR-3 [18] = test: Induction of ROS generation in human OVCAR-3 cells measured after 48 hrs by DCFH-DA staining based fluorescence microscopy; assay type: functional, cell-based; settings: dose 1-10 µM
OVCAR-3 [19] = test: Induction of ROS generation in human OVCAR-3 cells at 1 to 10 uM measured after 48 hrs in presence of N-acetyl cysteine by DCFH-DA staining based fluorescence microscopy; assay type: functional, cell-based; settings: dose 1-10 µM
OVCAR-3 [20] = test: Cytotoxicity against human OVCAR-3 cells at 1 to 10 uM measured after 72 hrs in presence of N-acetyl cysteine by MTT assay; assay type: functional, cell-based; settings: dose 1-10 µM
OVCAR-3 [21] = test: Induction of apoptosis in human OVCAR-3 cells assessed as viable cell at 10 uM after 48 hrs in presence of 4C-TPPBr by Annexin V-FITC/PI staining based flow cytometry (reference value: 98.3%); assay type: functional
OVCAR-3 [22] = test: Induction of apoptosis in human OVCAR-3 cells assessed as necrotic cell at 10 uM after 48 hrsin presence of 4C-TPPBr by Annexin V-FITC/PI staining based flow cytometry (reference value: 0.00%); assay type: functional; settings: time 48 hrs
OVCAR-3 [23] = test: Induction of apoptosis in human OVCAR-3 cells assessed as late apoptotic cell at 10 uM after 48 hrs in presence of 4C-TPPBr by Annexin V-FITC/PI staining based flow cytometry (reference value: 0.118%); assay type: functional
OVCAR-3 [24] = test: Induction of apoptosis in human OVCAR-3 cells assessed as early apoptotic cell at 10 uM after 48 hrs in presence of 4C-TPPBr by Annexin V-FITC/PI staining based flow cytometry (reference value: 1.58%); assay type: functional

Compound	IC50 (SMMC-7721)	IC50 (HepG2)	IC50 (OVCAR-3 [1])	IC50 (A549 [2])	IC50 (J82)	IC50 (HUVEC)	Activity (OVCAR-3 [4])	Activity (OVCAR-3 [5])	Activity (OVCAR-3 [6])	Activity (OVCAR-3 [7])	also measured
C[C@H]1[C@H](OC(=O)CCC(=O)OCCCCC[P+](c2ccccc2)(c2ccccc2)c2ccccc2)O[C@@H]2O[C@@]3(C)CC[C@H]4[C@H](C)CC[C@@H]1[C@@]24OO3	13 µM	16.1 µM	6.6 µM	5.6 µM	29.3 µM	27.5 µM	–	–	–	–	–
C[C@H]1[C@H](OC(=O)CCCC[P+](c2ccccc2)(c2ccccc2)c2ccccc2)O[C@@H]2O[C@@]3(C)CC[C@H]4[C@H](C)CC[C@@H]1[C@@]24OO3.[Br-]	18 µM	5.2 µM	3 µM	4.7 µM	41.9 µM	24.5 µM	10.5%	4.04%	0.078%	85.4%	Ratio IC50 [3]: 8.2; Activity (OVCAR-3 [8]): Dose-dependent effect; Activity (OVCAR-3 [9]): Dose-dependent effect; Activity (OVCAR-3 [10]): 17.2%; Activity (OVCAR-3 [11]): 55.4%; Activity (OVCAR-3 [12]): 95.5%; Activity (OVCAR-3 [13]): inactive; Activity (OVCAR-3 [14]): inactive; Activity (OVCAR-3 [15]): Dose-dependent effect; Ratio IC50 (A549 [16]): 4.8; Ratio IC50 (OVCAR-3 [17]): 4.4; Activity (OVCAR-3 [18]): Active; Activity (OVCAR-3 [19]): inactive; Activity (OVCAR-3 [20]): inactive
C[C@H]1[C@H](OC(=O)CCCCC[P+](c2ccccc2)(c2ccccc2)c2ccccc2)O[C@@H]2O[C@@]3(C)CC[C@H]4[C@H](C)CC[C@@H]1[C@@]24OO3.[Br-]	11.9 µM	5.3 µM	7.1 µM	2.7 µM	13.9 µM	9.1 µM	–	–	–	–	Ratio IC50 (A549 [16]): 4.8
C[C@H]1[C@@H](O)O[C@@H]2O[C@@]3(C)CC[C@H]4[C@H](C)CC[C@@H]1[C@@]24OO3 [ARTENIMOL]	61.4 µM	73.6 µM	87.2 µM	27.8 µM	146 µM	180 µM	3.61%	1.97%	0.062%	94.4%	Activity (OVCAR-3 [21]): 95.7%; Activity (OVCAR-3 [22]): 0.01%; Activity (OVCAR-3 [23]): 1.56%; Activity (OVCAR-3 [24]): 2.74%
C[C@H]1[C@H](OC(=O)CCC(=O)O)O[C@@H]2O[C@@]3(C)CC[C@H]4[C@H](C)CC[C@@H]1[C@@]24OO3 [ARTESUNATE]	72.3 µM	47 µM	67.3 µM	5.4 µM	75.7 µM	86.1 µM	–	–	–	–	–
C[C@H]1[C@H](OC(=O)CC[P+](c2ccccc2)(c2ccccc2)c2ccccc2)O[C@@H]2O[C@@]3(C)CC[C@H]4[C@H](C)CC[C@@H]1[C@@]24OO3	62.7 µM	1.2 µM	35.7 µM	26.5 µM	78.8 µM	66.5 µM	–	–	–	–	–
C[C@H]1[C@H](OC(=O)CCC[P+](c2ccccc2)(c2ccccc2)c2ccccc2)O[C@@H]2O[C@@]3(C)CC[C@H]4[C@H](C)CC[C@@H]1[C@@]24OO3	34.2 µM	35.7 µM	15.8 µM	12.2 µM	115 µM	116 µM	–	–	–	–	–
O=C(O)CCCC[P+](c1ccccc1)(c1ccccc1)c1ccccc1.[Br-]	–	–	–	–	–	–	5.81%	0.625%	1.55%	92%	–
C[C@H]1[C@H](OC(=O)CCC(=O)OCCC[P+](c2ccccc2)(c2ccccc2)c2ccccc2)O[C@@H]2O[C@@]3(C)CC[C@H]4[C@H](C)CC[C@@H]1[C@@]24OO3	23.6 µM	13 µM	16.6 µM	5.5 µM	43.8 µM	18.3 µM	–	–	–	–	–
